Test results from patent US9403756B2, “N-phenyl anthranilic acid derivatives and uses thereof” (Ramot at Tel-Aviv University Ltd., priority 2007, dated 2016).
Entries after “also recorded” stand apart in the source; their conditions may differ. Read-outs that look alike come from different tables or passages of the source.

Experiments:
Kv7.2/3 channels = biological target: T1, Kv7.2/3 channels (Homo sapiens, UniProt O43525+O43526); experiment: Kv7.2/3 channels coexpressed in CHO cells, whole-cell patch-clamp; type: cell-based; conditions: for Activity: M-channel modulation, Kv7.2 and Kv7.3 subunits coexpressed in CHO cells; for ΔV50 (mV): left-shift of the activation curve of Kv7.2/3 channels; for EC50: read-out: EC50
T1 construct: expressed in transfected cells; host or cells: CHO cells
Experimental: Chinese hamster ovary (CHO) cells were grown in Dulbecco's modified Eagle's medium (DMEM) supplemented with 2 mM glutamine, 10% fetal calf serum and antibiotics. Briefly, 40,000 cells seeded on poly-D-lysine-coated glass coverslips (13 mm diameter) in a 24-multiwell plate were transfected with pIRES-CD8 (0.5 μg) as a marker for transfection, and with Kv7.2 (0.5 μg) and Kv7.3 (0.5 μg) or TRPV1 […] or TRPV6 […].
For electrophysiology, transfected cells were visualized approximately 40 hours following transfection, using anti-CD8 antibody-coated beads. Transfection was performed using Fugene 6 (Roche, Indianapolis Ind., USA) according to the manufacturer's protocol.
Voltage-clamp recordings in CHO cells were performed, using the whole-cell configuration of the patch-clamp technique. Signals were amplified using an Axopatch 200B patch-clamp amplifier (Molecular Devices, Sunnyvale, Calif.), sampled at 2 kHz and filtered at 800 Hz via a 4-pole Bessel low pass filter. […] The patch pipettes were pulled from borosilicate glass (Warner Instrument Corp, USA) with a resistance of 2-5 MΩ. For K^+ current recordings in CHO cells, the intracellular pipette solution contained (in mM): 130 KCl, 1 MgCl2, 5 K2ATP, 5 EGTA, 10 HEPES, adjusted with KOH to pH 7.4 (290 mOsm). The extracellular solution contained (in mM): 140 NaCl, 4 KCl, 1.8 CaCl2, 1.2 MgCl2, 11 glucose, 5.5 HEPES, adjusted with NaOH to pH 7.4 (310 mOsm).
Data analysis was performed using the Clampfit program (pClamp 9.2, Molecular Devices), Microsoft Excel (Microsoft) and Prism 4.0 (GraphPad). Chord conductance (G) was calculated by using the following equation: G=I/(V−Vrev) where I corresponds to the current amplitude measured at the end of the pulse and Vrev, the calculated reversal potential. G was estimated at various test voltages V and then, normalized to a maximal conductance value, Gmax. Activation curves were fitted by one Boltzmann distribution: G/Gmax=1/{1+exp[(V50−V)/s]} where V50 is the voltage at which the current is half-activated and s is the slope factor. All data were expressed as mean±SEM. Statistically significant differences were assessed by Student's t-test. Analysis of sEPSCs and sIPSCs was done using the Clampfit program (pClamp 9.2, Molecular Devices) and included evaluation of the individual events as well as the average event amplitude and the integral of the event (total charge transfer).
In these studies, the impact of the compounds on M-channel activity was measured by the heterologous coexpression of Kv7.2 and Kv7.3 subunits in CHO cells.

COX = experiment: Anti-COX activity in cell culture, CT26 and D122 cell lines (results in words); type: cell-based, mouse; conditions: COX-dependent synthesis of PGE2
Experimental: Mouse colon adenocarcinoma CT26 and mouse lewis lung carcinoma D122 cells were grown in DMEM (D122) or RPMI (CT26) supplemented with 10% fetal calf serum, 4% glutamine, 1% penicillin-streptomycin-nystatin and 3% non essential amino acids (D122) and were kept in a humidified 37° C. incubator with 5% CO2. For the COX activity assays, cells were grown onto 24 multi-well plates.
Before the assay, cells were washed with serum-free medium; then the tested compounds were added to the medium and incubated for 30 minutes at 37° C. after which 30 μM arachidonic acid were added and incubated for additional 20 minutes. At the end of the incubation period, 10 μM Indomethacin were added to stop the reaction and medium was transferred to another 24 multi-well plate for measuring PGE2 production by radioimmunoassay (DuPont-NEN; Boston Mass.) according to manufacturer protocol. Protein determination was assayed on scraped cells using the Bradford method (1976) [Bradford M. M. 1976. Anal. Biochem. 72:248-254], with BSA as a standard and was used to normalize the amount of PGE2 production.
The anti-COX activity of NH25, NH29 and NH30 was examined in Mouse colon adenocarcinoma CT26 and mouse lewis lung carcinoma D122 cell lines. Cells were incubated with each of the tested compounds and the level of the COX-dependent synthesis of PGE2 was quantified using radioimmunoassay techniques.

[1] = tested on: maximal electroshock seizure model (MES) in ICR mice; experiment: Maximal electroshock seizure test (MES); type: in vivo; conditions: 30 minutes before electroshock, data not shown
Experimental: The anti-convulsant effect was measured by the maximal electroshock seizure model (MES) in ICR mice as previously described. The procedures followed for experimentation and maintenance of the animals were approved by the animal research ethics committee of Tel Aviv University and in accordance with the Guide for the Care and Use of Laboratory Animals (1996, National Academy of Sciences, Washington D.C.). Briefly, maximal electroshock was induced in adult mice by means of two transcorneal electrodes delivering an alternative current of 50 mA at 60 Hz for 0.2 sec using rodent shocker (Hugo Sachs Electronik, type 221). […] The compounds, dissolved in 0.9% saline, were administered intraperitoneally 30 minutes before the electroshock was performed. Animals failing to show tonic hind limb extension were scored as protected and were expressed in percentage.

KCNQ2 mutant R207W = biological target: T2, KCNQ2 mutant R207W (Homo sapiens, UniProt O43526, R207W); type: cell-based
T2 construct: expressed in transfected cells; host or cells: CHO cells
From the text: FIGS. 10A-D present the potentiating effect of NH29, an exemplary channel opener compound according to embodiments of the present invention, on wild type KCNQ2 (FIGS. 10A and 10B) and R207W mutant (FIGS. 10C and 10D) channels, as expressed in activation curve measurements, showing that NH29 left-shifts the activation curve (ΔV50) by −15.5 mV and −5.5 mV in the case of the wild-type and the mutant, respectively, and showing that NH29 enhances the current of wild-type and the mutant by about 3.4-fold (at −40 mV) and 1.5-fold (at −20 mV), respectively.
FIGS. 11A-F present the potentiating effect of NH29, an exemplary channel opener compound according to embodiments of the present invention, and Retigabine, on KCNQ2 mutants R207W and W236L mutant. Shown are representative traces recorded from CHO cell transfected with the KCNQ2 mutant R207W 0, 1 and 4-4.5 minutes after external application of 25 μM of NH29 and wherein the membrane potential was stepped from −90 mV holding potential to −20 mV for 1.5 seconds pulse duration (FIG. 11A), or 0, 1 and 4 minutes after external application of 25 μM of Retigabine wherein the membrane potential was stepped from −90 mV holding potential to −40 mV for 1.5 seconds pulse duration (FIG. 11B). FIGS. 11C and 11D show representative traces recorded from CHO cells transfected with the KCNQ2 mutant W236L 0, 1 and 6 minutes after external application of 25 μM of NH29 (FIG. 11C) or 0 and 5 minutes after external application of 10 μM of Retigabine (FIG. 11D) and wherein the membrane potential was stepped from −90 mV holding potential to −40 mV for 1.5 seconds pulse duration. FIG. 11E presents superimposed traces, showing the effects of Retigabine (RTG) and NH29 on the channel activity of KCNQ2 mutant W236L as measured at −40 mV; and FIG. 11F presents a bar diagram comparing the potentiating effect of NH29 and Retigabine on native KCNQ2 and KCNQ2 mutants, wherein the opener effect is expressed as percent of the control current in the absence of the opener.
Voltage-clamp recordings in CHO cells were performed, using the whole-cell configuration of the patch-clamp technique. Signals were amplified using an Axopatch 200B patch-clamp amplifier (Molecular Devices, Sunnyvale, Calif.), sampled at 2 kHz and filtered at 800 Hz via a 4-pole Bessel low pass filter. Data were acquired using pClamp 9.2 software (Molecular Devices) and an IBM compatible Pentium IV computer in conjunction with a DigiData 1322A interface (Molecular Devices). The patch pipettes were pulled from borosilicate glass (Warner Instrument Corp, USA) with a resistance of 2-5 MΩ. For K^+ current recordings in CHO cells, the intracellular pipette solution contained (in mM): 130 KCl, 1 MgCl2, 5 K2ATP, 5 EGTA, 10 HEPES, adjusted with KOH to pH 7.4 (290 mOsm). The extracellular solution contained (in mM): 140 NaCl, 4 KCl, 1.8 CaCl2, 1.2 MgCl2, 11 glucose, 5.5 HEPES, adjusted with NaOH to pH 7.4 (310 mOsm). Series resistances (3-13 MΩ) were compensated (75-90%) and periodically monitored.

[2] = opener potency, concentration-dependent left-shift in half-activation potential ΔV50, sigmoidal fit
[3] = compounds whose Activity is Blocker

T2 sequence (O43526 whole entry R207W): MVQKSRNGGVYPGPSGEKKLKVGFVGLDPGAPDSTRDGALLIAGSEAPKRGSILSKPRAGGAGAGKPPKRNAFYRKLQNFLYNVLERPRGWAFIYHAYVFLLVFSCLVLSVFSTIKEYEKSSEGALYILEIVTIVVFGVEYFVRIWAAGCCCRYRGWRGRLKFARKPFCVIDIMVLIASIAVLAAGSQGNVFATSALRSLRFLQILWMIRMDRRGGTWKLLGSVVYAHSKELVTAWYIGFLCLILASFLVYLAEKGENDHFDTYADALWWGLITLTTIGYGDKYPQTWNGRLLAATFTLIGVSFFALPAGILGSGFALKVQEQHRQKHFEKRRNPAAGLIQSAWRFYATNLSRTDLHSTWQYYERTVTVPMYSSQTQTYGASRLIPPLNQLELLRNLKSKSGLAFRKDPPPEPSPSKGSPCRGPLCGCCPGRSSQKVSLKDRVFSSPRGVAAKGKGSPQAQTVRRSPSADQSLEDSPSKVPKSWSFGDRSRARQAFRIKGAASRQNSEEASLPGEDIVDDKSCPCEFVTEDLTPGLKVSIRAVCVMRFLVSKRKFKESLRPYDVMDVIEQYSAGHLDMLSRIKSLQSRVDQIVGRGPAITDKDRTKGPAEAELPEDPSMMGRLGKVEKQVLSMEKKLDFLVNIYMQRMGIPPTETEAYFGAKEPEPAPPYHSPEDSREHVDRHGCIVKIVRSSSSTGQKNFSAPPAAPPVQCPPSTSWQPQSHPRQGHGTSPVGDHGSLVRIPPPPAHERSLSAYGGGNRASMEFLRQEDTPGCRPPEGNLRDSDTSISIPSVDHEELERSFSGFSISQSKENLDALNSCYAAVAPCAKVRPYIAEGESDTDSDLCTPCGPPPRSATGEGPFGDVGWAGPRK

Activity (Kv7.2/3 channels) | Compound | also measured
totally inactive | COCCOCCOC(=O)Cc1ccccc1Nc1c(Cl)cccc1Cl [NH13] | –
potent M-channel openers | O=C(O)c1ccccc1Nc1cccc(C(F)(F)F)c1 [flufenamate, reference compound] | –
Opener | O=C(O)Cc1cc([N+](=O)[O-])ccc1Nc1c(Cl)cccc1Cl [NH24] | –
Opener | O=C(Cc1cc([N+](=O)[O-])ccc1Nc1c(Cl)cccc1Cl)NCCO [NH30] | ΔV50 (mV) (Kv7.2/3 channels): −12.2 mV; EC50 (Kv7.2/3 channels; [2]): 17 µM; anti-COX activity (COX): did not exhibit anti-COX activity
Opener | O=C(Cc1ccccc1Nc1c(Cl)cccc1Cl)NCCOCCO [NH14] | ΔV50 (mV) (Kv7.2/3 channels): −12.6 mV
– | CCCC(CCC)C(=O)[O-].[Na+] [sodium valproate] | protection in MES ([1]; 500 mg/kg intraperitoneal): fully prevented hind limb extension
totally inactive | Cc1c(Cl)cccc1Nc1ccccc1C(=O)OCC(C)C [NH10] | –
– | O=C1NC(=O)C(c2ccccc2)(c2ccccc2)N1 [phenyloin] | protection in MES ([1]; 20 mg/kg intraperitoneal): fully prevented hind limb extension
Opener | O=C(Cc1ccccc1Nc1c(Cl)cccc1Cl)NCCO [NH27] | –
potent M-channel openers | Cc1cccc(Nc2ccccc2C(=O)O)c1C [mefenamate, reference compound] | –
potent M-channel openers | Cc1c(Cl)cccc1Nc1ccccc1C(=O)O [tolfenamate, reference compound] | –
Opener | O=C(Cc1ccccc1Nc1c(Cl)cccc1Cl)OCCOCCO [NH6] | ΔV50 (mV) (Kv7.2/3 channels): −18.7 mV; EC50 (Kv7.2/3 channels; [2]): 18 µM
Opener | Cc1cccc(Nc2ccccc2C(=O)NCCOCCO)c1C [NH15] | ΔV50 (mV) (Kv7.2/3 channels): −8.4 mV; EC50 (Kv7.2/3 channels; [2]): 3 µM
do not activate Kv7.2/3 channels | CC(C(=O)O)c1ccc(-c2ccccc2)c(F)c1 (stereo not shown) [flurbiprofen, reference compound] | –
do not activate Kv7.2/3 channels | COc1ccc2cc([C@H](C)C(=O)O)ccc2c1 [naproxen, reference compound] | –
– | Zinc pyrithione [reference compound] | activation of S4 mutant R207W (KCNQ2 mutant R207W): activate very potently
do not activate Kv7.2/3 channels | CC(C(=O)O)c1cccc(Oc2ccccc2)c1 (stereo not shown) [fenoprofen, reference compound] | –
Opener | O=C(Cc1ccccc1Nc1c(Cl)cccc1Cl)OCCO [NH7] | ΔV50 (mV) (Kv7.2/3 channels): −4.1 mV
Opener | O=C(NCCOCCO)c1ccccc1Nc1cccc(C(F)(F)F)c1 [NH16] | ΔV50 (mV) (Kv7.2/3 channels): −5.5 mV; EC50 (Kv7.2/3 channels; [2]): 9 µM
Opener | Cc1c(Cl)cccc1Nc1ccccc1C(=O)NCCOCCO [NH18] | ΔV50 (mV) (Kv7.2/3 channels): −3.7 mV; EC50 (Kv7.2/3 channels; [2]): 6 µM
Opener | CN(CCO)C(=O)Cc1ccccc1Nc1c(Cl)cccc1Cl [NH5] | –
totally inactive | COCCOCCOCCOCCOC(=O)Cc1ccccc1Nc1c(Cl)cccc1Cl [NH8] | –
totally inactive | CC(C)COC(=O)c1ccccc1Nc1cccc(C(F)(F)F)c1 [NH11] | –

Compound | Activity (Kv7.2/3 channels) | also measured
Cc1ccc(Cl)c(Nc2ccccc2C(=O)O)c1Cl [Meclofenamic, Meclofenamic acid, reference compound] | Opener | ΔV50 (mV) (Kv7.2/3 channels): −22.7 mV; EC50 (Kv7.2/3 channels; [2]): 25 µM
O=C(O)Cc1ccccc1Nc1c(Cl)cccc1Cl [Diclofenac, reference compound] | Opener | EC50 (Kv7.2/3 channels; [2]): 2.6 µM
O=C(Cc1ccccc1Nc1c(Cl)cccc1Cl)OCC1CO1 (stereo not shown) [NH21] | potent M-channel blockers; also recorded: Blocker | EC50 (Kv7.2/3 channels; [3]): 100 µM
O=C(Cc1cc([N+](=O)[O-])ccc1Nc1c(Cl)cc([N+](=O)[O-])cc1Cl)NCCO [NH28] | Opener | –
CC(C)COC(=O)Cc1ccccc1Nc1c(Cl)cccc1Cl [NH9] | potent M-channel blockers; also recorded: Blocker | EC50 (Kv7.2/3 channels; [3]): 50 µM
